BindingDB's records for doi:10.1021/jm070453f (Gnf, 2007)

Legend:
[1] = target: T1, Oxysterols receptor LXR-beta (Homo sapiens, UniProt P55055); assay: Fluorescence-Resonance Energy Transfer Assay; conditions: pH 7.2; 37 °C
T1 sequence (P55055 whole entry): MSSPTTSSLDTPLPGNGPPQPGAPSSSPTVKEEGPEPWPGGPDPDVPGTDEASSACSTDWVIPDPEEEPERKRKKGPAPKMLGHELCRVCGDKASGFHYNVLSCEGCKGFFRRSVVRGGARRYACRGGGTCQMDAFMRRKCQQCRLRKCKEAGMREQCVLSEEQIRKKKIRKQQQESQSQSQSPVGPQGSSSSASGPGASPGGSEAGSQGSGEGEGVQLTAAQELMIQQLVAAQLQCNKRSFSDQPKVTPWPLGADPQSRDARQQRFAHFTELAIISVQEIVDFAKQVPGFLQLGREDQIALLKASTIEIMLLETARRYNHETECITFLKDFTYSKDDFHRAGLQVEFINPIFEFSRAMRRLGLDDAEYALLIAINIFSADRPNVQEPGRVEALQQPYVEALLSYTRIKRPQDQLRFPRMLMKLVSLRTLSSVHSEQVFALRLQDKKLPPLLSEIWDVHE
Experimental: (§1) FRET-based co-activator recruitment assay measures agonist activities in a 384-well plate format. Reaction mixture containing His-tagged hLXR, biotinylated SRC-1 peptide, Europiumlabeled anti-His antibody, and allophycocyaninlabeled streptavidin (Prozyme) was prepared. Ligands were tested in 12-point dose-response curves, and FRET was read on an AnalystGT (Molecular Devices).

[2] = target: T1, Oxysterols receptor LXR-beta; assay: Scintillation Proximity Assay
Experimental: (§2) SPA assays were run in displacement mode using 30 nM [3H]-GW3965. Ligands were tested in 12-point dose-response curves starting at 20 uM. IC50 values were determined from dose-response and competition curves, which were generated by nonlinear regression analysis using GraphPad Prism.

[3] = target: T2, Oxysterols receptor LXR-alpha (Homo sapiens, UniProt Q13133); assay: Scintillation Proximity Assay
T2 sequence (Q13133 whole entry): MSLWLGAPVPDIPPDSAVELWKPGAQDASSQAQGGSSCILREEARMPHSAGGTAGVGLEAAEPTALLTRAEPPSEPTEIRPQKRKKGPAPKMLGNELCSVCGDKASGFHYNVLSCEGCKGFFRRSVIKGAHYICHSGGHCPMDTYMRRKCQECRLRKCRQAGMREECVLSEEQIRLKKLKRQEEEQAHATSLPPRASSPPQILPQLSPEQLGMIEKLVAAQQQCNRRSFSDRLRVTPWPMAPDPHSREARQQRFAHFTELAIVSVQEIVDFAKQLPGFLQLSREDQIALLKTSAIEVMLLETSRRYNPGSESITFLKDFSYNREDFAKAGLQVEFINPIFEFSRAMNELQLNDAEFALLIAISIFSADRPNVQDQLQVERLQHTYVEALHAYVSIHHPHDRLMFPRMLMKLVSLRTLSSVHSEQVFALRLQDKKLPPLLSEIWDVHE
Experimental: as §2

[4] = target: T2, Oxysterols receptor LXR-alpha; assay: Fluorescence-Resonance Energy Transfer Assay; conditions: pH 7.2; 37 °C
Experimental: as §1

## COc1cccc(C2SC(c3ccc(Cl)cc3)=NN2C(=O)c2c(F)cc(F)cc2F)c1OC (racemic) [5-(4-chlorophenyl)-2-(2,3-dimethoxyphenyl)-3-[(2,4,6-trifluorophenyl)carbonyl]-2,3-dihydro-1,3,4-thiadiazole]
[1]
  EC50: 0.3 µM
[2]
  IC50: 0.3 µM
[3]
  IC50: 9.8 µM

## O=C(O)Cc1cccc(OCCCN(Cc2cccc(C(F)(F)F)c2Cl)CC(c2ccccc2)c2ccccc2)c1 [2-{3-[3-({[2-chloro-3-(trifluoromethyl)phenyl]methyl}(2,2-diphenylethyl)amino)propoxy]phenyl}acetic acid]
[2]
  IC50: 0.023 µM
[3]
  IC50: 0.121 µM

## COc1ncccc1C1SC(c2ccc(F)cc2)=NN1C(=O)c1c(F)cc(F)cc1F (centres undefined) [5-(4-fluorophenyl)-2-(2-methoxypyridin-3-yl)-3-[(2,4,6-trifluorophenyl)carbonyl]-2,3-dihydro-1,3,4-thiadiazole]
[1]
  EC50: 0.21 µM
[4]
  EC50: 0.4 µM

## COc1cccc([C@H]2SC(c3ccc(Cl)cc3)=NN2C(=O)c2c(F)cc(F)cc2F)c1OC [(2R)-5-(4-chlorophenyl)-2-(2,3-dimethoxyphenyl)-3-[(2,4,6-trifluorophenyl)carbonyl]-2,3-dihydro-1,3,4-thiadiazole]
[2]
  IC50: 0.066 µM
[3]
  IC50: 5 µM
